Source: patent publication EP4671261A1, “NOVEL PEPTIDE EXHIBITING SKIN CONDITION IMPROVEMENT ACTIVITY AND COSMETIC COMPOSITION CONTAINING SAME” (Daebong LS Co., Ltd., priority 2023, dated 2024)
Where a SMILES comes first, the peptide text is derived from it.

Columns and labels:
[1] = EZ-cytox cell viability assay in macrophages; format: cell-based; conditions: mouse, RAW264.7 macrophage cells, LPS (1µg/ml)
Description: (§1) RAW264.7 macrophage cells were obtained from the American Type Culture Collection (ATCC) and cultured in Dulbecco's Modified Eagle's Medium (DMEM) containing 100 units/mL penicillin-streptomycin and 10% (v/v) fetal bovine serum (FBS) at 37°C in a 5% CO2 incubator, and subculture was performed every 2 to 3 days.
(§2) The EZ-cytox assay is a representative method for measuring cell viability using the principle that water-soluble tetrazolium salts (WSTs) react with dehydrogenases of viable cells to produce a water-soluble orange formazan.
(§3) To evaluate cytotoxicity, RAW264.7 cells were seeded at 1.5 × 10^4 cells/well in a 96-well plate using DMEM supplemented with 10% FBS and incubated for 18 hours at 37°C in a 5% CO2 incubator. The test samples were then applied to the cultured cells. After treatment, EZ-cytox was added to each well and incubated for 30 minutes under the same conditions. Absorbance was measured at 450 nm using a microplate reader. The mean absorbance values of each sample group were compared with the control group to determine cell viability.

RAW264.7 cells [2] = assay: EZ-cytox cell viability assay in macrophages; format: cell-based; conditions: 10 µM (positive control), LPS (1µg/ml)
Description: as §1, §2, §3

RAW264.7 cells [3] = assay: Inhibition of nitric oxide (NO) production, Griess reagent, LPS-stimulated macrophages; format: cell-based; conditions: 10 µM (positive control), LPS (1µg/ml), relative to LPS control = 100
Description: as §1
RAW264.7 cells were seeded at 1.5 × 10^5 cells/well in a 24-well plate and incubated for 18 hours at 37°C in a 5% CO2 incubator. The cells were then treated with the peptide prepared in the above Example at concentrations of 50-200 µM and incubated for 24 hours. From each experimental group, 100 µL of the supernatant was collected into a 96-well plate, and 100 µL of griess reagent was added. The mixture was allowed to react at room temperature for 10 minutes, and absorbance was measured at 540 nm using a microplate reader. […] The relative levels of NO production following the treatments described in the above Example, based on NO production induced by the stimulant (LPS), are shown in Table 1 and Figure 2 below.

HaCaT cells = assay: Hyaluronic acid (HA) production, ELISA of culture supernatant; format: cell-based, human; conditions: 10 mM (positive control), untreated group = 100
Description: The HaCaT human keratinocyte cell line was obtained from Cell Line Service GmbH (Germany). The cells were cultured in DMEM containing 1% penicillin-streptomycin and 10% fetal bovine serum (FBS) at 37°C in a 5% CO2 incubator, and subculture was performed every 2 to 3 days.
HaCaT cells were seeded at 1.0 × 10^5 cells/well in a 24-well plate and incubated for 24 hours at 37°C in a 5% CO2 incubator. After incubation, the culture medium was replaced with serum-free DMEM, and the peptide prepared in the above Example was applied at concentrations of 50-200 µM, followed by incubation for 24 hours. The supernatant from each experimental group was collected, and the amount of hyaluronic acid (HA) released into the medium was measured. The positive control group was treated with N-acetylglucosamine at a concentration of 10 mM. Measurement of hyaluronic acid production was conducted using a Hyaluronic Acid ELISA Kit (Cusabio Biotechnology Co., Ltd.) following the manufacturer's protocol.

NHDF cells = assay: Procollagen Type I Peptide (PIP) production, EIA of culture supernatant; format: cell-based, Human; conditions: 10 µg/mL (positive control), untreated group = 100
Description: Normal Human Dermal Fibroblasts (NHDF) were obtained from Lonza (Lonza Walkersville, Inc.) and cultured in FBM (Fibroblast Basal Medium) supplemented with 0.1% hFGF-B, insulin, GA-1000, and 2% FBS at 37°C in a 5% CO2 incubator. Subculture was performed every 2 to 3 days.
NHDF cells were seeded at 2.0 × 10^4 cells/well in a 24-well plate and incubated for 24 hours at 37°C in a 5% CO2 incubator. After incubation, the culture medium was replaced with serum-free FBM, and the peptide prepared in the above Example was applied at concentrations of 1-100 µM, followed by incubation for 24 hours. The supernatant from each experimental group was collected, and the amount of procollagen released into the medium was measured. The positive control group was treated with ascorbic acid at a concentration of 0.001 v/v%. Measurement of procollagen levels was performed using a Procollagen Type I Peptide (PIP) EIA Kit (Takara Biomedical Co.) according to the manufacturer's protocol. The quantitative results of procollagen type I peptide production following treatment with the peptide of the Example are shown in Table 3 and Fig. 4.

N[C@@H](Cc1ccc(O)cc1)C(=O)NCC(=O)N[C@@H](CO)C(=O)N[C@@H](CC(=O)O)C(=O)O [Example, YGSD (Tyr-Gly-Ser-Asp)] (H-YGSD-OH)
viability at 50 µM ([1]; 50 µM): 98.1 ± 1.81%
viability at 100 µM ([1]; 100 µM): 99.4 ± 2.02%
viability at 200 µM ([1]; 200 µM): 99.53 ± 0.95%

Cc1ccnc(N)c1 [Example 2-AM, 2-amino-4-methylpyridine]
Cell viability (%) (RAW264.7 cells [2]): 94.12±1.76%
NO Production (%) (RAW264.7 cells [3]): 10.23±0.55%

CC(=O)N[C@H]1C(O)O[C@H](CO)[C@@H](O)[C@@H]1O (stereo partly shown) [NAG, N-acetylglucosamine]
Hyaluronic acid production (%) (HaCaT cells): 121.43±10.37%

O=C1O[C@H]([C@@H](O)CO)C(O)=C1O [Asc.A, ascorbic acid]
Procollagen production (%) (NHDF cells): 175.82±3.91%
